{
  "source": "patent US5525595A",
  "about": "“3- or 4-glycosyloxybenzopyran derivative and antiallergic agent containing the derivative as active ingredient” (priority 1993, dated 1996)",
  "key": {"[1]": {"system": "homologous passive cutaneous anaphylaxis (PCA) reaction", "test": "Effect on homologous passive cutaneous anaphylaxis (PCA) reaction in rats", "type": "in vivo, rats (Male wistar rats)", "settings": "for inhibition in vivo at 100 mg/kg: Rattus norvegicus, 0.5 h, 100 mg/kg oral, 1 hour before antigen, rats, Table 3", "procedure": "This experimental animal model is caused by immediate type allergic reaction, namely, antigen-antibody reaction. In the following, the method of this pharmacological test will be explained.\nMethod: Male wistar rats (9 weeks old) were intradermally administered 0.05 ml of anti-serum against trinitrophenylated ascaris (TNP-As) into two sites on the shaved dorsal skin. 48 hours later, 3-glycosyloxybenzopyran derivatives and 4-glycosyloxybenzopyran derivatives (test compounds) suspended in 0.5% sodium carboxymethylcellulose (CMCNa) were given orally at a dose of 100 mg/kg to the animals. 1 hour after administration of Test compounds, the animals were induced anaphylaxis by injection of saline (1 ml) dissolving 5 mg of Evans Blue and 1 mg of TNP-As into the tail vein of the animals. 30 minutes after induction of anaphylaxis, animals were anesthetized by ether and killed by bleeding, and were flayed dorsal skin. The leakage of dye was assessed by measuring the diameter (mean of shortest and longest diameter) of the blue spot on the inside surface of dorsal skin. As vehicle control group, only 0.5% CMCNa solution was administered orally, and as positive control group, Tranilast suspended in 0.5% CMCNa were administered orally at a dose of 100 mg/kg to the animals with the same method as the test compounds groups. Each experimental group consisted of 5 rats. [formula] In equation 1: A: leakage of dye in vehicle control group\nB: leakage of dye in test compound group or in positive control group\nThe anti-allergic activity of the compounds of the present invention were compared with that of analogous compounds which were published in the Patent (EP-A-0598117) by PCA reaction. This pharmacological test was performed according to the method described in Test Example 1."}, "[2]": {"system": "contact dermatitis induced by picryl chloride", "test": "Effect on contact dermatitis induced by picryl chloride in mice (delayed type hypersensitization)", "type": "in vivo", "settings": "100 mg/kg oral; for inhibition in vivo at 100 mg/kg: Mus musculus, ear thickness 24 hours after challenge, Table 6, read-out: Inhibition (%) against the increase of ear thickness", "procedure": "The delayed type hypersensitization is inhibited by steroid, but can not be effected by known anti-allergic agents. In the following, the method of the pharmacological test will be explained.\nMethod: Mice, shaved their abdominal skin on previous day, were immunized by applying 0.1 ml of acetone containing 7 mg of picryl chloride to the skin of the abdomen. 7 days after immunization, the thickness of the ear was measured with a dial thickness gauge, then mice were challenged by painting 5 μl of 1% picryl chloride olive oil solution to each side skin of left ear. 24 hours after challenge, the thickness of the left ear was measured again and the increase (%) of thickness was calculated according to equation 2. The compounds of the present invention (test compounds) suspended in 0.5% CMCNa were forcibly administered orally at a dose of 100 mg/kg at 1 hour before and 16 hours after challenge. As vehicle control group, only 0.5% CMCNa solution were administered orally, and as positive control group, Prednisolone, steroid hormone, and Tranilast were administered orally at the doses of 10 mg/kg and 100 mg/kg, respectively.\nIncrease (%)=(A-B)/B×100 (Equation 2)\nA: thickness of the ear at 24 hours after challenge\nB: thickness of the ear before challenge\nInhibition(%)=(C-D)/C×100 (equation 3)\nC: The increase (%) in vehicle control group\nD: The increase (%) in test compounds group or positive control group"}, "[3]": {"system": "airway resistance in experimental asthma model", "test": "Effect on experimental asthma model in guinea pigs", "type": "in vivo, guinea pigs (Male hadley)", "settings": "Cavia porcellus; 100 mg/kg oral, OVA challenge, guinea pigs; Table 7", "procedure": "The asthma is typical allergic disease and we carried out this pharmacological test by well known experimental asthma model in guinea pigs in order to confirm that the compounds of the present invention suppress the asthma. In the following, the method of the pharmacological test will be explained.\nMethod: Male hadley guinea pigs were immunized by intraperitoneal injection of saline (1 ml) containing 5 mg of ovalbumine (OVA) three times at interval of one week. 2 weeks after final immunization, the animals were challenged by inhalation of 1% OVA-saline solution for 1 minute and then the airway resistance of the animals were measured for 30 minutes with PULMOS-1 (Medical Interface Project Station Inc.) after the inhalation. The compounds of the present invention (test compounds) suspended in 0.5% CMCNa were given orally at a dose of 100 mg/kg. As positive control group, Disodium Cromoglicate (DSCG), well known anti-allergic agent, in saline were injected at a dose of 20 mg/kg into the vein of the animals. As vehicle control group, only 0.5% CMCNa solution were given orally. The inhibition (%) of the airway resistance in vehicle control group was calculated according to equation 5 and the result was shown in Table 7. Each experimental group consisted of 5 guinea pigs. [formula] In equation 5: A: Maximum airway resistance in vehicle control group\nB: Maximum airway resistance in test compounds group or positive control group"}},
  "data": [
    {"smiles": "O=C(Oc1ccc2c(O)c(O[C@@H]3O[C@H](CO)[C@H](O)[C@H](O)[C@H]3O)c(=O)oc2c1)c1ccccc1", "note": "[compound 39]", "values": [
      {"measurement": "inhibition in vivo at 100 mg/kg", "setting": "[1]", "value": 58.3, "unit": "%"},
      {"measurement": "inhibition in vivo at 100 mg/kg", "setting": "[2]", "value": 54.3, "unit": "%"},
      {"measurement": "inhibition in vivo at 100 mg/kg", "setting": "[3]", "value": 64.1, "unit": "%"}
    ]},
    {"smiles": "COc1ccc2c(O)c(OC)c(=O)oc2c1", "note": "[Compared compound 1, 4-hydroxy-3,7-dimethoxy-2H-1-benzopyran-2-one, reference compound]", "values": [
      {"measurement": "Inhibition (%) of PCA reaction, compared compounds", "setting": "[1]; Comparative Test Example 1, Table 5, compared compounds of EP-A-0598117", "value": 28.9, "unit": "%"}
    ]},
    {"smiles": "O=c1oc2cc(OCc3ccccc3)ccc2c(O[C@H]2O[C@H](CO)[C@@H](O)[C@H](O)[C@@H]2O)c1O", "note": "[compound 90]", "values": [
      {"measurement": "inhibition in vivo at 100 mg/kg", "setting": "[1]", "value": 45.3, "unit": "%"},
      {"measurement": "inhibition in vivo at 100 mg/kg", "setting": "[2]", "value": 38.4, "unit": "%"},
      {"measurement": "inhibition in vivo at 100 mg/kg", "setting": "[3]", "value": 40.5, "unit": "%"}
    ]},
    {"smiles": "O=C(Oc1ccc2c(O[C@H]3O[C@H](CO)[C@@H](O)[C@H](O)[C@@H]3O)c(O)c(=O)oc2c1)c1ccccc1", "note": "[compound 86]", "values": [
      {"measurement": "inhibition in vivo at 100 mg/kg", "setting": "[1]", "value": 43, "unit": "%"},
      {"measurement": "inhibition in vivo at 100 mg/kg", "setting": "[2]", "value": 39.1, "unit": "%"},
      {"measurement": "inhibition in vivo at 100 mg/kg", "setting": "[3]", "value": 41.2, "unit": "%"}
    ]},
    {"smiles": "CCCCCCCCCCOc1ccc2c(O[C@H]3O[C@H](CO)[C@@H](O)[C@H](O)[C@@H]3O)c(O)c(=O)oc2c1", "note": "[compound 81]", "values": [
      {"measurement": "inhibition in vivo at 100 mg/kg", "setting": "[1]", "value": 48.3, "unit": "%"},
      {"measurement": "inhibition in vivo at 100 mg/kg", "setting": "[2]", "value": 50.8, "unit": "%"},
      {"measurement": "inhibition in vivo at 100 mg/kg", "setting": "[3]", "value": 63.1, "unit": "%"}
    ]},
    {"smiles": "COc1ccc(/C=C/C(=O)Nc2ccccc2C(=O)O)cc1OC", "note": "[Tranilast, reference compound]", "values": [
      {"measurement": "inhibition in vivo at 100 mg/kg", "setting": "[1]", "value": 56.2, "unit": "%"},
      {"measurement": "inhibition of delayed type hypersensitization", "setting": "[2]; in words", "value": "did not inhibit delayed type hypersensitization"},
      {"measurement": "inhibition in vivo at 100 mg/kg", "setting": "[2]", "value": 11.5, "unit": "%"}
    ]},
    {"smiles": "CCCCCCCCCCCCOc1ccc2c(O[C@H]3O[C@H](CO)[C@@H](O)[C@H](O)[C@@H]3O)c(OC(C)=O)c(=O)oc2c1", "note": "[compound 89]", "values": [
      {"measurement": "inhibition in vivo at 100 mg/kg", "setting": "[1]", "value": 43.7, "unit": "%"},
      {"measurement": "inhibition in vivo at 100 mg/kg", "setting": "[2]", "value": 41.2, "unit": "%"},
      {"measurement": "inhibition in vivo at 100 mg/kg", "setting": "[3]", "value": 43.2, "unit": "%"}
    ]},
    {"smiles": "CC(C)=CCC/C(C)=C/COc1ccc2c(O[C@H]3O[C@H](CO)[C@@H](O)[C@H](O)[C@@H]3O)c(O)c(=O)oc2c1", "note": "[compound 85]", "values": [
      {"measurement": "inhibition in vivo at 100 mg/kg", "setting": "[1]", "value": 47.6, "unit": "%"},
      {"measurement": "inhibition in vivo at 100 mg/kg", "setting": "[2]", "value": 47.2, "unit": "%"},
      {"measurement": "inhibition in vivo at 100 mg/kg", "setting": "[3]", "value": 48.5, "unit": "%"}
    ]},
    {"smiles": "CC(=O)Oc1ccc2c(O)c(O[C@@H]3O[C@H](CO)[C@@H](O)[C@H](O)[C@H]3O)c(=O)oc2c1", "note": "[compound 13, 7-acetoxy-4-hydroxy-3-(β-D-glucopyranosyloxy)-2H-1-benzopyran-2-one]", "values": [
      {"measurement": "inhibition in vivo at 100 mg/kg", "setting": "[1]", "value": 58.7, "unit": "%"},
      {"measurement": "inhibition in vivo at 100 mg/kg", "setting": "[2]", "value": 50.4, "unit": "%"},
      {"measurement": "inhibition in vivo at 100 mg/kg", "setting": "[3]", "value": 57.7, "unit": "%"}
    ]},
    {"smiles": "CCCCCCOc1ccc2c(O[C@@H]3O[C@H](CO)[C@@H](O)[C@H](O)[C@H]3O)c(O)c(=O)oc2c1", "note": "[compound 121]", "values": [
      {"measurement": "inhibition in vivo at 100 mg/kg", "setting": "[1]", "value": 63.7, "unit": "%"},
      {"measurement": "inhibition in vivo at 100 mg/kg", "setting": "[2]", "value": 63.7, "unit": "%"},
      {"measurement": "inhibition in vivo at 100 mg/kg", "setting": "[3]", "value": 75.1, "unit": "%"}
    ]},
    {"smiles": "CC(C)=CCC/C(C)=C/COc1ccc2c(O[C@@H]3O[C@H](CO)[C@H](O)[C@H](O)[C@H]3O)c(O)c(=O)oc2c1", "note": "[compound 99]", "values": [
      {"measurement": "inhibition in vivo at 100 mg/kg", "setting": "[1]", "value": 58.6, "unit": "%"},
      {"measurement": "inhibition in vivo at 100 mg/kg", "setting": "[2]", "value": 59.4, "unit": "%"},
      {"measurement": "inhibition in vivo at 100 mg/kg", "setting": "[3]", "value": 77.7, "unit": "%"}
    ]},
    {"smiles": "O=c1oc2cc(O)ccc2c(O)c1O[C@H]1O[C@H](CO)[C@@H](O)[C@H](O)[C@@H]1O", "note": "[compound 23]", "values": [
      {"measurement": "inhibition in vivo at 100 mg/kg", "setting": "[1]", "value": 47.8, "unit": "%"},
      {"measurement": "inhibition in vivo at 100 mg/kg", "setting": "[2]", "value": 45, "unit": "%"},
      {"measurement": "inhibition in vivo at 100 mg/kg", "setting": "[3]", "value": 46.6, "unit": "%"}
    ]},
    {"smiles": "O=c1oc2cc(OCc3ccccc3)ccc2c(O[C@@H]2O[C@H](CO)[C@@H](O)[C@H](O)[C@H]2O)c1O", "note": "[compound 76]", "values": [
      {"measurement": "inhibition in vivo at 100 mg/kg", "setting": "[1]", "value": 47.7, "unit": "%"},
      {"measurement": "inhibition in vivo at 100 mg/kg", "setting": "[2]", "value": 46.8, "unit": "%"},
      {"measurement": "inhibition in vivo at 100 mg/kg", "setting": "[3]", "value": 47.5, "unit": "%"}
    ]}
  ]
}
